Data reported in BigSolDB 2.1.

O=C(O)c1ccc(C(=O)O)cc1
solubility (mole fraction)
Details	in 2-ethylhexanol	in DMAc	in DMF	in DMSO	in NMP	in pyridine
313.15 K	0.000293	0.0155	0.0325	0.0964	0.0558	0.0767
318.15 K	0.000335	0.0199	0.0337	0.0989	0.0646	0.0767
323.15 K	0.000377	0.0243	0.035	0.102	0.0736	0.0766
328.15 K	0.000429	0.0304	0.0361	0.104	0.0838	0.0768
333.15 K	0.000482	0.0365	0.0372	0.107	0.094	0.0769
338.15 K	0.000559	0.0453	0.0383	0.108	0.0952	0.077
343.15 K	0.000636	0.0541	0.0394	0.11	0.0963	0.077
348.15 K	0.000724	0.065	0.0412	0.113	0.0974	0.0774
353.15 K	0.000812	0.076	0.0429	0.116	0.0985	0.0778
358.15 K	0.000915	0.0823	0.0442	0.118	0.0999	0.0783
363.15 K	0.00102	0.0886	0.0455	0.121	0.101	0.0787
